What is called EC50 is the concentration needed to bring the measured effect to its halfway point. Read a low EC50 as an effect from little substance.

These results are taken from patent US8097610B2, “Derivative having PPAR agonistic activity” (Shionogi & Co., Ltd., priority 2005, dated 2012).

Type in all cases: cell-based
For one assay, the target named is T1, human PPARδ (hPPARδ) (Homo sapiens, UniProt Q03181).
T1 construct: δ: aa 139-C-end; α: aa 167-C-end; expressed in transfected cells; host or cells: CHO cells (transient transfection, FuGene)
T1 sequence (Q03181 139-441 limits assumed): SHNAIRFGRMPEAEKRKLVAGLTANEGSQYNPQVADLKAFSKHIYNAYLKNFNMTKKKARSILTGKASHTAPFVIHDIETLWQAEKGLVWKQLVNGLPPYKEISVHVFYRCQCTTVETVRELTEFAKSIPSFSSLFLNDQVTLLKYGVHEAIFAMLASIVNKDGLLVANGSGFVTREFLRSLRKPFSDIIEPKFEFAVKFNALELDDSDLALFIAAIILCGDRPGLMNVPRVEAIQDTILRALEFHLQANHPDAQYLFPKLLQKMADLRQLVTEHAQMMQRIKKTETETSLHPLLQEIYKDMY
Put plainly: Test for transcriptional activity of PPARδ (GAL4 chimeric transcription factor reporter assay in CHO cells). Particulars: CHO cells transfected with GAL4-hPPARδ LBD and pG5luc reporter; 24 hours; luciferase activity; concentration showing 1/2 of maximum luciferase activity. An excerpt:
(§1) A chimeric transcription factor assay, which is commonly used to detect nuclear receptor activity, was employed to measure PPAR transcriptional activity. Specifically, two plasmids, one that expresses the fusion protein of DNA binding domain of yeast transcription factor GAL4 and a ligand binding domain of a receptor, and a reporter plasmid were transiently transfected to CHO cells. The activity of the promoter containing a recognition sequence of GAL4 coded on the reporter plasmid was used as a parameter to estimate the activity of the receptor.
(§2) Plasmid: The ligand binding domain of human PPARδ (hPPARδ) or α(hPPARα) (δ: aa 139-C-end; α: aa 167-C-end) is obtained by PCR amplification using Human Universal Quick-Clone cDNA (CLONTECH). […] Then, each obtained cDNA fragment was subcloned into pBIND vector (Promega) to construct a plasmid expressing the fusion protein with DNA binding domain of yeast transcription factor GAL4. pG5luc vector (Promega) was used as a reporter plasmid.
(§3) Cell culturing and transfection: CHO cells were cultured in 10% FBS-aMEM. With a 96-well plate (Costar), CHO cells, that were dispersed with trypsin treatment, 20000 cells per well and the two plasmids obtained by the above procedure, 25 ng per well, were transfected with FuGene Reagent (Roche) by following the instruction of the manufacture.
(§4) Measurement of the transcriptional activity: CHO cells 100 μl per well, which were transfected as above, were dispensed into the wells in which a test compound dissolved in DMSO 0.5 μl was spotted in advance. After the cells and a test compound were cultured together for 24 hours in a CO2 incubator, the luciferase activity was measured by adding luciferase substrates, PicaGene LT2.0 (Toyo ink) 100 μl per well. LUMINOUS CT-9000D (DIA-IATRON) is used to measure the activity.
In general terms: In a reporter assay the amount or activity of a reporter protein is the signal.

Another assay addresses T2, hPPARγ (Homo sapiens, UniProt P37231).
T2 construct: expressed in transfected cells
T2 sequence (P37231 238-503 limits assumed): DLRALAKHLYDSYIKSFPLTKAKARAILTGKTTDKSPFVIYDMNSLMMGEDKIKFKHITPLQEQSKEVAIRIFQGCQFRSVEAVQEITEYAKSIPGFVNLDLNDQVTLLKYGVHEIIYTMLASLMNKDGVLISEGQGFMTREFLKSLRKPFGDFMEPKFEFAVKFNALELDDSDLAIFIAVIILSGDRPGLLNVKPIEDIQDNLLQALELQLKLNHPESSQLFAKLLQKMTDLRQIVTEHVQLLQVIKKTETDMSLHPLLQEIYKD
Put plainly: Transcriptional activity of PPARγ (Table 9; chimeric transcription factor assay).
Text: as §1, with “receptor. Cell culturing and transfection: CHO cells were cultured in 10% FBS-aMEM. With a 96-well plate (Costar), CHO cells, that were dispersed with trypsin treatment, 20000 cells per well and the two plasmids obtained by the above procedure, 25 ng per well, were transfected with FuGene Reagent (Roche) by following the instruction of the manufacture. […] LUMINOUS […]) is used to measure the activity.” for “receptor.”

The target in the next assay is T3, human PPARα (hPPARα) (Homo sapiens, UniProt Q07869).
T3 construct: δ: aa 139-C-end; α: aa 167-C-end; expressed in transfected cells; host or cells: CHO cells (transient transfection, FuGene)
T3 sequence (Q07869 167-468 limits assumed): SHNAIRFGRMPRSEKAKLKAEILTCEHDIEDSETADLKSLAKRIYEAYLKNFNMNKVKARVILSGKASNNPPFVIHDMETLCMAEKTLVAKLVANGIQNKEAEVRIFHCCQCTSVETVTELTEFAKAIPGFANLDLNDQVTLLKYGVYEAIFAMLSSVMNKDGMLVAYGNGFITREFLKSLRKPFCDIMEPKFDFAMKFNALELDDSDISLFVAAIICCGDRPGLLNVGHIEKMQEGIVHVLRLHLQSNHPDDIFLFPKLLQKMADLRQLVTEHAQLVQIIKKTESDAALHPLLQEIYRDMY
Put plainly: Test for transcriptional activity of PPARα (GAL4 chimeric transcription factor reporter assay in CHO cells). The following applies: CHO cells transfected with GAL4-hPPARα LBD and pG5luc reporter; 24 hours; luciferase activity.
Text: as §1, §2, §3, §4

As to `C[C@@H]1CN(c2ccc(C(F)(F)F)cn2)C[C@H](C)N1CCOc1cc(CC(=O)O)ccc1Cl` [Example 707], the EC50 on human PPARδ (hPPARδ) was 0.019 µM; on hPPARγ it was 3.3 µM; on human PPARα (hPPARα) it was 2.5 µM.
For `CCCC[C@@H]1CN(Cc2cc(C)cc(OCC(=O)O)c2)CCN1c1nc2ccc(OC(F)(F)F)cc2s1` [Example 854, [3-[(R)-3-butyl-4-(6-trifluoromethoxybenzothiazole-2-yl)-piperazine-1-ylmethyl]-5-methylphenoxy]acetic acid], in that order: 0.0044 µM, greater than 10 µM and greater than 10 µM.
As to `C[C@@H]1CN(C2(CCOc3cc(Cl)cc(CC(=O)O)c3)CCN(c3nc4ccc(Cl)cc4s3)CC2)C[C@H](C)O1` [Example 652], the EC50 on human PPARδ (hPPARδ) is 0.28 µM; at hPPARγ, greater than 10 µM; on human PPARα (hPPARα), greater than 10 µM.
With `CCCCN(Cc1cccc(CC(=O)O)c1)C1CCN(c2nc3ccc(Cl)cc3s2)C1` (stereo not drawn) [Example 612, [3-[[butyl[1-(6-chlorobenzothiazole-2-yl)pyrrolidine-3-yl]amino]methyl]phenyl]acetic acid], the EC50 on human PPARδ (hPPARδ) was determined as 0.049 µM; on hPPARγ, 2.2 µM; on human PPARα (hPPARα) it was 0.57 µM.
Take `C[C@@H]1CN(c2nc3ccc(Cl)cc3s2)C[C@H](C)N1CCOc1ccc(Cl)c(CC(=O)O)c1` [Example 699]: the EC50 on human PPARδ (hPPARδ) was 0.041 µM; at hPPARγ it was 0.76 µM; on human PPARα (hPPARα), 1 µM.
In the case of `COc1ccc(CC(=O)O)cc1OCC1CCN(c2nc3ccc(Cl)cc3s2)CC1` [Example 519], the EC50 on human PPARδ (hPPARδ) turned out to be 0.02 µM; at hPPARγ, 0.8 µM; on human PPARα (hPPARα), 0.54 µM.
In the same order, the values of `O=C(O)Cc1ccc(CN2CCCN(c3nc4ccc(Cl)cc4s3)CC2)s1` [Example 503] are 0.91 µM, greater than 10 µM and 1.5 µM.
For the molecule `CNc1cccc(-c2cnc(N3CCN(CCOc4cc(CC(=O)O)ccc4Cl)[C@@H](C)C3)s2)c1` [Example 562], the values for the EC50 on human PPARδ (hPPARδ), on hPPARγ and on human PPARα (hPPARα) were 0.029 µM, 1.9 µM and greater than 10 µM, respectively.
For `Cc1cc(CC(=O)O)cc(CN2CCN(c3nc4ccc(C(F)(F)F)cc4s3)[C@@H](CC(C)C)C2)c1` [Example 474], in that order: 0.0045 µM, 0.2 µM and 0.35 µM.
For `O=C(O)Cc1cccc(OCCN(C2CCCCC2)C2CCN(c3nc4ccc(Cl)cc4s3)C2)c1` (stereo not drawn) [Example 630], in that order: 0.023 µM, 4.2 µM and 2.6 µM.
Take `C[C@H]1CN(c2nc3ccc(Cl)cc3s2)CCN1CCOc1cc(Cl)cc(CC(=O)O)c1` [Example 679]: the EC50 at human PPARδ (hPPARδ) stood at 0.013 µM; at hPPARγ it was 0.58 µM; at human PPARα (hPPARα), 0.96 µM.
For the molecule `Cc1cc(CN2C[C@@H](C)N(c3nc4ccc(C(F)(F)F)cc4s3)[C@@H](C)C2)cc(OCC(=O)O)c1` [Example 590], the EC50 is 0.026 µM at human PPARδ (hPPARδ), greater than 10 µM on hPPARγ and greater than 10 µM on human PPARα (hPPARα).
